Earlier results as cited in patent US10448644B2, “Fungicide composition for natural fibers and natural fiber components” (Lisa Draexlmaier Gmbh, priority 2014, dated 2019).

Legend:
[1] = animal experiments
[2] = according to the German Federal Institute for Health Protection and Veterinary Medicine

c1ccc2[nH]c(-c3cscn3)nc2c1 [thiabendazole]
carcinogenic effect [1]: found to have a carcinogenic effect
toxicity [2]: low
